Test results: ChEMBL document CHEMBL5465560, “Selectivity Literature for EUbOPEN Chemogenomic Library” (2024)

What was measured:
[1] = biological target: T1, Atypical kinase COQ8B, mitochondrial (Homo sapiens) (UniProt Q96D53); assay: Selectivity interaction (KinomeScan (DiscoverX)) EUB0001049a ADCK4; details: at 1 µM
T1 sequence (whole entry): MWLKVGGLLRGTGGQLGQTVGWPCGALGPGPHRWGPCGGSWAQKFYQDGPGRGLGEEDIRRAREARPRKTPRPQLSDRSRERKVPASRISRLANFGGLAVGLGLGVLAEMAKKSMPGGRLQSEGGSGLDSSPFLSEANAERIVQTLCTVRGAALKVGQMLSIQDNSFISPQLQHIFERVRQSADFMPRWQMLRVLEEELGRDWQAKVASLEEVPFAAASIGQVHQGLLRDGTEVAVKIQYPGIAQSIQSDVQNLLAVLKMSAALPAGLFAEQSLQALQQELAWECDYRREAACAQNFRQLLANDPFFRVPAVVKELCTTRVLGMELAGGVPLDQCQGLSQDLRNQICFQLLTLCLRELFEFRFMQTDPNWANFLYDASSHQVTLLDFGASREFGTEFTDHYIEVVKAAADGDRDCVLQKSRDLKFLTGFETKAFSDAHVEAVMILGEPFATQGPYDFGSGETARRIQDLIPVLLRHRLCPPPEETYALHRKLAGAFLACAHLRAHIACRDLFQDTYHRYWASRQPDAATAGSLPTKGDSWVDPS

[2] = biological target: Rho-associated protein kinase 1 (Homo sapiens) (UniProt Q13464); assay: Selectivity interaction (Ambit KINOMEscan and KiNATiv profiling in Jurkat cells) EUB0000090b ROCK1; type: cell-based; details: at 1 µM
[3] = biological target: Ribosomal protein S6 kinase alpha-1 (Homo sapiens, UniProt Q15418); assay: Selectivity interaction (ActivX KiNativ screen (kinase selectivity in THP-1 cell lysates)) EUB0000639a RPS6KA1; type: subcellular; details: lysate, at 1 µM
[4] = biological target: Serine/threonine-protein kinase 26 (Homo sapiens, UniProt Q9P289); assay: Selectivity interaction (KinomeScan (DiscoverX)) EUB0000695a STK26; details: at 100 nM
[5] = biological target: T2, Serine/threonine-protein kinase TAO2 (Homo sapiens) (UniProt Q9UL54); assay: Selectivity interaction (KinomeScan (DiscoverX)) EUB0001619a TAOK2; details: at 1 µM
T2 sequence (whole entry): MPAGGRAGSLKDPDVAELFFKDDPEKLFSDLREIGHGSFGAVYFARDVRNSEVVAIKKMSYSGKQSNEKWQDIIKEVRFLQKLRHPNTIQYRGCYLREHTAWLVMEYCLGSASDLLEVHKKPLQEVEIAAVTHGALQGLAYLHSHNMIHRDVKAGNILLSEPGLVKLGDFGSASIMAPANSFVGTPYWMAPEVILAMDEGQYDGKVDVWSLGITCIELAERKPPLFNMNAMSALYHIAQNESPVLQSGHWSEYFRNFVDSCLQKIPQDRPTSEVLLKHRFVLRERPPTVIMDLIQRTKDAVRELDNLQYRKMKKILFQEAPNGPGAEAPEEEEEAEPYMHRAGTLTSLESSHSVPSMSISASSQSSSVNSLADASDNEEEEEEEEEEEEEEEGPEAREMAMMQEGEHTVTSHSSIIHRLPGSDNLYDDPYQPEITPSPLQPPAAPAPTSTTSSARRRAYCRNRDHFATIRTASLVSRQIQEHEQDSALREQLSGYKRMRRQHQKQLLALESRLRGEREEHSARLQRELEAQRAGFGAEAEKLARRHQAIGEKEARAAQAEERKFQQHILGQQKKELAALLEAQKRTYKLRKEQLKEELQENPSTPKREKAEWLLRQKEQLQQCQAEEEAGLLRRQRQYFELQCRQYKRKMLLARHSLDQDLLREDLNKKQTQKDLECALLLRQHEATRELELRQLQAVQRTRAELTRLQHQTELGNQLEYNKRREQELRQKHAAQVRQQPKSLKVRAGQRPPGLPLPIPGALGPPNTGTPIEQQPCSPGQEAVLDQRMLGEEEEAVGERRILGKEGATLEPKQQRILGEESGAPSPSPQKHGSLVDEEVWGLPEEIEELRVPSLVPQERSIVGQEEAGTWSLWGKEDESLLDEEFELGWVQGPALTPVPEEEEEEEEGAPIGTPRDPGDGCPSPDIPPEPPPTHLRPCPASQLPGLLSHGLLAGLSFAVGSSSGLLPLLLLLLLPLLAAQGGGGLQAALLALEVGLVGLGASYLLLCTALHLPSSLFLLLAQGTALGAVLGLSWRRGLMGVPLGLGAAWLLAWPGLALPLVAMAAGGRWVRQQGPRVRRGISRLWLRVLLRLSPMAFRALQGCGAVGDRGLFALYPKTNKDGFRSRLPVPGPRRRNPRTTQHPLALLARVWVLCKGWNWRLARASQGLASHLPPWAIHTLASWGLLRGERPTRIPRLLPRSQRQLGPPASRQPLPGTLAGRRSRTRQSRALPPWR

[6] = biological target: T3, cGMP-dependent protein kinase 1 (Homo sapiens) (UniProt Q13976); assay: Selectivity interaction (SelectScreen profiling (Invitrogen)) EUB0000607a PRKG1; details: at 2 µM
T3 sequence (whole entry): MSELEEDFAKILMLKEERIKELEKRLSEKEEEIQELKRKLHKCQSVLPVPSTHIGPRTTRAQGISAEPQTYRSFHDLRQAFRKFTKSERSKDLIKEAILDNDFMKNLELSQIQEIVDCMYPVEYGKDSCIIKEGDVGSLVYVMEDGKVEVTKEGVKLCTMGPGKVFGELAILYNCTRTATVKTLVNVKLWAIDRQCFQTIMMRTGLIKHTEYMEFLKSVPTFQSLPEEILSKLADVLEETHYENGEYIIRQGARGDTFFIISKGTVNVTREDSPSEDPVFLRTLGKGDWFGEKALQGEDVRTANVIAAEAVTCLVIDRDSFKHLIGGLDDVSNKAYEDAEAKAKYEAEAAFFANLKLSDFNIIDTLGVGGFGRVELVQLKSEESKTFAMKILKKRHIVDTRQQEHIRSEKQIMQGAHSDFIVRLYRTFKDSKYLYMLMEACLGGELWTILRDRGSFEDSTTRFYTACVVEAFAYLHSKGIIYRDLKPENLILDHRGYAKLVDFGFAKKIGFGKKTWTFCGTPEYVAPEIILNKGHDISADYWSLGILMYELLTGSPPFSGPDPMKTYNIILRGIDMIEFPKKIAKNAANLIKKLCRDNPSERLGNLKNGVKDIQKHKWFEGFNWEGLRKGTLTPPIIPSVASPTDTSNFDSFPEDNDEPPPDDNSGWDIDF

[7] = biological target: Activin receptor type-1-like (Homo sapiens) (UniProt P37023); assay: Selectivity interaction (KinomeScan (DiscoverX)) EUB0000666a ACVRL1; details: at 10 µM
Chain of Activin receptor type-1-like (Homo sapiens) (P37023 whole entry): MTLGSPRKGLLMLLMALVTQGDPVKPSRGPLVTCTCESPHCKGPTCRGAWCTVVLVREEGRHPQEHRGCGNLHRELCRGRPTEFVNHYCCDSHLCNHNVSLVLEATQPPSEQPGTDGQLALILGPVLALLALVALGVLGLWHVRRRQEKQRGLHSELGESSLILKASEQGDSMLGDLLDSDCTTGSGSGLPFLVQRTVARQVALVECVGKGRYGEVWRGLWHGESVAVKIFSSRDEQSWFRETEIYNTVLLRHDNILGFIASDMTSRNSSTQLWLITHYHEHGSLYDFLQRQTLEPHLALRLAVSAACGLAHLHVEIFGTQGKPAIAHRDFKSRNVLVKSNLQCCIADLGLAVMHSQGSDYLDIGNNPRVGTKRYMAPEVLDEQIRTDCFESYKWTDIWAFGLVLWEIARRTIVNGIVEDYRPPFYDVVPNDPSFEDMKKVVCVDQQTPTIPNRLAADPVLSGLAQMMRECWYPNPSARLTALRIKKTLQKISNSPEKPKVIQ

Chain of Ribosomal protein S6 kinase alpha-1 (Q15418 whole entry): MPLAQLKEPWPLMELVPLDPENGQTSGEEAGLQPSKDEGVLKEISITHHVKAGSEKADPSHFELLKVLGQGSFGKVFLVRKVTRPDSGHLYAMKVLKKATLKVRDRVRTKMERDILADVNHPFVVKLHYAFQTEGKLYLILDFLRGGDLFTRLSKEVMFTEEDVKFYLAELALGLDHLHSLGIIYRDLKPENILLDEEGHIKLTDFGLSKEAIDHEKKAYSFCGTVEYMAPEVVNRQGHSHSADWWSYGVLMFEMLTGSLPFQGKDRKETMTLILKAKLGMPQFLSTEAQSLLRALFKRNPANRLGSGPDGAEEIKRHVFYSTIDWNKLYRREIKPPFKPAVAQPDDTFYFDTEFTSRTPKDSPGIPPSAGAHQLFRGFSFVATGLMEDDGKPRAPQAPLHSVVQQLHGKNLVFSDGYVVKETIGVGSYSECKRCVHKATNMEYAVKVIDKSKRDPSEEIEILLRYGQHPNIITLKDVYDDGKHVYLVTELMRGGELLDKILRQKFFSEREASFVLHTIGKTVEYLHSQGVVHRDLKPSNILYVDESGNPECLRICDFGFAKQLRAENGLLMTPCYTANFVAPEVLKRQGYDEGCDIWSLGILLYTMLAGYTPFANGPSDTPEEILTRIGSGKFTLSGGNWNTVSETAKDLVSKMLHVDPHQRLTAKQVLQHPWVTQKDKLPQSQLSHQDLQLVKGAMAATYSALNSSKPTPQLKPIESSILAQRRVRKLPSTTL
Chain of Serine/threonine-protein kinase 26 (Q9P289 2-416 limits assumed): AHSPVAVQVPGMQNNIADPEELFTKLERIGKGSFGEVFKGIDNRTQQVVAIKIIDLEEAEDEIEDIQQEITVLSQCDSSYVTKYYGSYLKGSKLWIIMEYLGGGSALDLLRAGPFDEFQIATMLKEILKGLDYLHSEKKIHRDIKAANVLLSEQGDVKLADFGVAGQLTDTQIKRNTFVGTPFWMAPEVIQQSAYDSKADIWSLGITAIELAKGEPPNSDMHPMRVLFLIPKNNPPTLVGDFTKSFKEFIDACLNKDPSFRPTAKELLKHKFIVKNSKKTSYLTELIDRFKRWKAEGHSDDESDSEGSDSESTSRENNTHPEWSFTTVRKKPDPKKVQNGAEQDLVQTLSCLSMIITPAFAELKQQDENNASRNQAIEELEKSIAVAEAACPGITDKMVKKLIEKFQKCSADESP
Chain of Rho-associated protein kinase 1 (Homo sapiens) (Q13464 2-1354 limits assumed): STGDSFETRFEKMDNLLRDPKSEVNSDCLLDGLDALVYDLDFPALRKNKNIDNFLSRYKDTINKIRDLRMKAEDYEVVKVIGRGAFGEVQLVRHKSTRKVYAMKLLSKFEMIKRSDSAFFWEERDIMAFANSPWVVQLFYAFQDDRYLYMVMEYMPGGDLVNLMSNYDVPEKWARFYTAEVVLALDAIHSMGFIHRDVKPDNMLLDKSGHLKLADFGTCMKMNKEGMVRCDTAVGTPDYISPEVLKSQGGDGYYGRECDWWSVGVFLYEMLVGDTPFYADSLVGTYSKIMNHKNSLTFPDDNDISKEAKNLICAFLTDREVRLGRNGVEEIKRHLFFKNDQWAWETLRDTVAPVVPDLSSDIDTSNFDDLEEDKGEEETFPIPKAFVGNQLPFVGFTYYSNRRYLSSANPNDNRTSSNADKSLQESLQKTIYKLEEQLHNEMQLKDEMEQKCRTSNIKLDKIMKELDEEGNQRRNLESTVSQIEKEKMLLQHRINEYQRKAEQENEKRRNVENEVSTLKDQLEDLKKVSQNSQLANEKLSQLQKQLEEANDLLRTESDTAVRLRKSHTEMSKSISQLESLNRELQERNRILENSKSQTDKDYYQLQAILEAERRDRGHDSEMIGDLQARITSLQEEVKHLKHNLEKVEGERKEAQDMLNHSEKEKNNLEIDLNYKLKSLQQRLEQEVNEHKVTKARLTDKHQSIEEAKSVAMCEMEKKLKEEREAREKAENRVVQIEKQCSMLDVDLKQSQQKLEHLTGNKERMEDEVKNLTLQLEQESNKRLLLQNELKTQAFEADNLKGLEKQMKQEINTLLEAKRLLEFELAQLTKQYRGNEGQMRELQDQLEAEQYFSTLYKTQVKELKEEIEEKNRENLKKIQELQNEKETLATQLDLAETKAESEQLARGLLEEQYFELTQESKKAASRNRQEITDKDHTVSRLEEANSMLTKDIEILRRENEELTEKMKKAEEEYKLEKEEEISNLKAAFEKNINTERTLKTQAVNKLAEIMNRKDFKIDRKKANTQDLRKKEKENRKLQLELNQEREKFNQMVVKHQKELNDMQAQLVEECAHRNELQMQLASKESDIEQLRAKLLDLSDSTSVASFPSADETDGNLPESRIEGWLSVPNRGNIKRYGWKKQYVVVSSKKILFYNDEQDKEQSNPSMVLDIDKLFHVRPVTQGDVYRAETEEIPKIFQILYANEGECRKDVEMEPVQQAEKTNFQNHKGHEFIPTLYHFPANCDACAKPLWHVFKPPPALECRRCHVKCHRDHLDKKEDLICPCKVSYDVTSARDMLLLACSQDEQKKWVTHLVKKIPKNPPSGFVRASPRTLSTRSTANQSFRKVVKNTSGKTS

Question: With `COc1cc(Nc2nc(C)cc(-c3cnn4nc(OC)ccc34)n2)cc(C(F)(F)F)c1` as the compound, how does the % of control [1] read?
Answer: 79%

Question: With `CN(C)C/C=C/C(=O)Nc1ccc(C(=O)N2CCCC(Nc3ncc(Cl)c(-c4c[nH]c5ccccc45)n3)C2)cc1` (configuration not stated) as the compound, how does the % of control [2] read?
Answer: 90%

Question: How did the % of inhibition [3] turn out when `CC[C@@H]1[C@H](F)C(=O)N[C@@H]1COc1nccc2cc(C(N)=O)c(OC)cc12` [ZIMLOVISERTIB] was run?
Answer: -1%

Question: For `Cc1cc(F)c(C(=O)Nc2cccc(-c3nncn3C(C)C)n2)cc1-n1cnc(C2CC2)c1`, which % of control [4] is on record?
Answer: 100%

Question: Which % of control [5] does the source give for `N#Cc1cccc(-c2c[nH]c3ncnc(N4CCOCC4)c23)c1` here?
Answer: 100%

Question: With `CNC(=O)Nc1ccc(-c2nc(N3CC4CCC(C3)O4)c3cnn(C4CCC5(CC4)OCCO5)c3n2)cc1` as the compound, how does the % of inhibition [6] read?
Answer: 1%

Question: With `O=C(NOC[C@H](O)CO)c1ccc(F)c(F)c1Nc1ccc(I)cc1F` as the compound, how does the % of control [7] read?
Answer: 100%
